Entries after “also recorded” stand apart in the source; their conditions may differ.
Experiments:
tumour cells UOK-128 = test: Cell proliferation of UOK-128 tumour cells (cell count and BrdU incorporation); type: cell-based, human; conditions: different concentrations, medium without serum, 48 hrs
Experimental: (§1) The cells were cultured in plates with 24 wells (1 ml per well) and in plates with 96 well (100 μl per well) at the rate of 10,000 to 30,000 C/ml. The cells were cultivated in the medium with serum described above. For the assays with the RPTH1 antagonists, after 24 hrs of culture, the medium was changed for a medium without serum containing 0.1% BSA (bovine serum albumin, Sigma) and the antibiotics. This manipulation facilitates cultivation of the cells in the absence of the factors present in the serum and facilitates assessment of the influence of the antagonist on cell proliferation. […]
(§2) The cell proliferation was determined by two means, on the one hand by counting the cells (manual counting) using plates with 24 wells and on the other hand by measuring the incorporation of 5-bromo-2′-deoxyuridine (BrdU) using plates with 96 wells.
(§3) The culture medium is removed by suction and an adequate volume of trypsin-EDTA (Sigma) is added. […] The cells are then recovered and manually counted with a counting cell placed under an optic microscope. […]
(§4) For the experiments in vitro, the results of the manual counts are expressed as a percentage of the number of cells present in the control wells. […] The incorporations in response to the treatments are thus expressed as a percentage of the incorporations of positive controls taken as 100% incorporation. […]

tumour cells 786-0 [1] = test: Cell proliferation of 786-0 tumour cells (cell count and BrdU incorporation); type: cell-based, human; conditions: antagonist at different concentrations, medium without serum, 48 hrs
Experimental: as §1, §2, §3, §4

[2] = tested on: 786-0 cells implanted subcutaneously; test: Pilot protocol: subcutaneous 786-0 tumours in nude mouse, twice weekly injections; type: in vivo; conditions: for growth of implanted tumours: twice weekly i.p. and intratumoural injections, 25 days (antibody stopped after 18 days), versus control
Experimental: (§5) The 786-0 cells were cultivated in the RPMI 1640 medium supplemented with serum until confluence. The cells were recuperated by trypsination and re-suspended in RPMI 1640 medium without serum and without antibiotics at the rate of 5 million cells/200 μl the same day of implantation of the mice. The cells were implanted subcutaneously in the backs of nude mice at the rate of 200 μl per implantation. A week to 10 days after the implantation of the cells, the tumours developed forming nodules of approximately 60 to 300 mm^3. From this moment, the treatments were initiated according to three protocols: a pilot protocol which was performed in order to determine the effectiveness of the treatments in vivo and carried out on two mice per experimental condition receiving 4 implantations (namely 8 tumours/experimental condition) and two experimental protocols elaborated following the results obtained with the pilot protocol on 10 or 5 mice per experimental condition and receiving 1 or 2 implantations (namely 10 tumours/experimental condition).
Pilot Protocol. In this protocol, 6 mice were separated into three groups: a first group receiving injections of sterile water (control), a second group receiving injections of anti-PTHrP (1-34) antibody (Bachem, dissolved in sterile water) and a third group receiving injections of antagonist (Asn10, Leu11, D-Trp12)PTHrP(7-34) amide (Bachem, dissolved in sterile water). All injections were performed 2 times per week intra-peritoneally (50 μg/mouse of antibody or 20 μg/mouse of antagonist in 200 μl) and in intra-tumoural terms (25 μg/mouse of antibody or 10 μg/mouse of antagonist in […]). […] The volume of the tumours (length×width×depth×0.5236) was manually measured in a blind manner with callipers on days 0, 4, 7, 12, 14, 18, 23 and 25 after the first injection of the compounds under light gas anaesthesia with isoflurane. […]
(§6) For the experiments in vivo in the nude mouse, the results of tumour growths were expressed as a percentage of the size at day 0 of the treatments. The results are expressed as a mean +/−ESM. […]

tumour cells 786-0 [3] = test: Analysis of cell death/apoptosis (detachment, OA/EB staining, DNA laddering); type: cell-based, human; conditions: 48 hrs
Experimental: The cells were treated under control conditions or with either an anti-PTHrP N-terminal antibody at 1.5 μg/ml or a RPTH1 antagonist at 1 μM for 48 hrs. The orange acridine (OA) and the ethidium bromide (EB) were dissolved in a PBS buffer and added at 2 μg/ml in the culture medium. The cells were observed and photographed under fluorescence microscopy, either for the FITC (OA) or for the TRITC (EB). The fragmentation of the internucleosomal DNA was detected by a “DNA laddering” test. The cells were re-suspended in 300 μl of lysis buffer (25 mM EDTA, 1% SDS, 1 mg/ml proteinase K, pH 8) and incubated overnight at 50° C. DNA was extracted by phenol/chloroform, precipitated with ethanol and analysed by electrophoresis on agarose gel.

[4] = tested on: 786-0 cells implanted subcutaneously; test: First experimental protocol: subcutaneous 786-0 tumours in nude mouse, daily RPTH1 antagonist; type: in vivo
Experimental: as §5
First Experimental Protocol. […] Consequently, in this protocol, on the one hand the numbers in each group were increased (10 mice with a tumour/experimental group) and on the other hand daily injections either of water (control) or of the RPTH1 antagonist (dissolved in sterile water) were performed. As for the pilot protocol, all the injections were performed intraperitoneally (200 μl water or 20 μg/mouse of antagonist in 200 μl) and intratumourally (100 μl of water or 10 μg/mouse of antagonist in 100 μl). For this series, the size of the tumours was measured in a blind way twice a week under light gas anaesthesia with isoflurane. At the end of the experimental period, the mice were anaesthetised with pentobarbital. Approximately 0.5 ml of blood was then recovered rapidly through intracardiac puncture of each mouse for the dosage of electrolytes and circulating PTHrP. The tumours were dissected and fixed in formol for subsequent histo-pathological studies (necrotic aspect) and immunohistochemical studies (factor VIII, PTHrP, RPTH1, mitotic index and apoptotic index).
Proliferative and Apoptotic Index. The proliferation index was determined by coloration of tumour section with a monoclonal mouse antibody anti-Ki67 human, Dako, Trappes, France) using standard methods. The detection kit of apoptotic cells based upon the TUNEL method (Roche Diagnostics) was used to measure the apoptotic index on the sections. The total cells and those coloured in 15 fields (0.25 mm^2 each) of the highest cell coloration were counted in order to determine the two indexes which are expressed as a percentage of coloured cells in relation to total cells.
Factor VIII and Microvascular Density. The tumour sections were coloured for the endothelial cells with a rabbit polyclonal antibody anti-human […], (Dako) using standard methods. The density of the micro-vessels was determined by counting the intersection points between vessels and the total number of vessels of 4 to 5 fields (0.25 mm^2 each) showing the highest vascular density.
as §6

tumour cells UOK-126 = test: Cell proliferation of UOK-126 tumour cells (cell count and BrdU incorporation); type: cell-based, human; conditions: different concentrations, medium without serum, 48 hrs
Experimental: as §1, §2, §3, §4

[5] = daily antagonist, treated versus control group

(Asn10, Leu11, D-Trp12)PTHrP(7-34) amide (human, rat) [RPTH1 antagonist]
effect of antagonist on cell proliferation (tumour cells UOK-128): strongly inhibit | inhibition of cell proliferation (tumour cells 786-0 [1]): 70% | growth of implanted tumours [2]: blocks the growth | growth of implanted tumours ([2]; listed as antagonist): considerably slowed-down growth; also recorded: greatly slow down tumour growth | first day of significant tumour growth in comparison to day 0 ([2]; twice weekly treatment, control significant from day 7): 12 days | number of cells marked by EB (cell death) (tumour cells 786-0 [3]; 1 μM, compared with non-treated cells): clearly increases | cell adherence to the culture support (tumour cells 786-0 [3]; 10^−6 M, RPMI 1640 without serum): detaching the cells from the culture support | apoptotic index (TUNEL) of tumours [4, 5]: increased twofold | histopathological analysis of tumours [4, 5]: No polymorphic difference | number of intersection points of the vessels and total number of vessels per surface area [4, 5]: significantly increased | proliferation index (Ki67) of tumours [4, 5]: not different | growth of implanted tumours ([4]; daily i.p. 20 μg/mouse and intratumoural 10 μg/mouse, 17 days, versus control): totally inhibited; also recorded: completely blocks the tumour growth | effect of antagonist on cell proliferation (tumour cells UOK-126): inhibit very strongly

Source: patent publication US7727526B2, “Use of PTHrP antagonists for treating renal cell carcinoma” (Universite Louis Pasteur, priority 2002, dated 2010)
